In US20250360235A1, “RADI[…] AND METHOD FOR RADIOLABELLING” (Telix Innovations SA, priority 2024, published 2025):

Assays:
[1] = Visual inspection of [68Ga]PSMA-11 solution (acceptance: colourless to slightly yellow solution, free from visible particles); assay type: physicochemical; design: key: C = conforms to specifications
Description: (§1) Table 1 to Table 5 show the results of various radiolabelling experiments on radiochemical purity and the chelation yield. The radiolabelling experiments in the tables are carried out as described in: • Example 1 for when the gallium-68 source is GE Liquid target generator and EZAG GalliaPharm generator; • Example 2 for when the gallium-68 source is IRE Galli Eo generator; • Example 3 for when the gallium-68 source is GE solid target generator;
(§2) However, the experiments were carried out with the amount of ascorbic acid as indicated in the Tables 1 to 5, and the activity as indicated in the Tables 1 to 5. Radiochemical purities were measured at various times (T0, T1, T4, T6) after the radiolabelled experiments have been conducted.
(§3) The kits of Example 1, Example 2 or Example 3, with amounts of ascorbic acid as set out in Table 7 were used in the experiments for the ascorbic acid bracketing matrix. Three strengths of [^68Ga]Ga-PSMA-11 will be tested, i.e. 50 mCi/ml, 7 mCi/ml and 1 mCi/ml. Radiochemical purity was determined at different time points (TO, T1, T4 or T6), as set out in Table 7.

[2] = as above; assay type: physicochemical; design: key: C = Conforms to specifications
Description: as §1, §2, §3

Measured: Visual Inspection

O=C([O-])CN(CCN(CC(=O)[O-])Cc1cc(CCC(=O)NCCCCCC(=O)NCCCC[C@H](NC(=O)N[C@@H](CCC(=O)O)C(=O)O)C(=O)O)ccc1[O-])Cc1cc(CCC(=O)O)ccc1[O-].[68Ga+3].[OH3+] [[^68Ga]PSMA-11, gallium-68 radiolabelled Glu-urea-Lys-HBED-CC (gozetotide or PSMA-11)]
C: [1]; 1 mg ascorbic acid, 58.7-71.1 mCi, 7.47-8.99 mCi/mL, GE Liquid target, n=3, T0 | [1]; 1 mg ascorbic acid, 58.7-71.1 mCi, 7.47-8.99 mCi/mL, GE Liquid target, n=3, T4 (4 h) | [1]; 2.5 mg ascorbic acid, 49.9-76.9 mCi, 6.31-9.72 mCi/mL, GE Liquid target, n=3, T0 | [1]; 2.5 mg ascorbic acid, 49.9-76.9 mCi, 6.31-9.72 mCi/mL, GE Liquid target, n=3, T4 (4 h) | [1]; 5 mg ascorbic acid, 60-69.9 mCi, 7.61-8.81 mCi/mL, 3 × GE Liquid Target, 3 × EZAG GalliaPharm, n=6, T0 | [1]; 5 mg ascorbic acid, 60-69.9 mCi, 7.61-8.81 mCi/mL, 3 × GE Liquid Target, 3 × EZAG GalliaPharm, n=6, T4 (4 h) | [1]; 10 mg ascorbic acid, 458-500 mCi, 43.4-47.3 mCi/mL, GE Solid Target, n=3, T0 | [1]; 10 mg ascorbic acid, 458-500 mCi, 43.4-47.3 mCi/mL, GE Solid Target, n=3, T4 (4 h) | [1]; 10 mg ascorbic acid, 514-520 mCi, 49.0-66.1 mCi/mL, GE Solid Target, n=3, T0 | [1]; 10 mg ascorbic acid, 514-520 mCi, 49.0-66.1 mCi/mL, GE Solid Target, n=3, T6 (6 h) | [1]; 15 mg ascorbic acid, 10.0-18.4 mCi, 0.95-1.77 mCi/mL, 1 × EZAG GalliaPharm, 2 × IRE Galli Eo, n=3, T0 | [1]; 15 mg ascorbic acid, 10.0-18.4 mCi, 0.95-1.77 mCi/mL, 1 × EZAG GalliaPharm, 2 × IRE Galli Eo, n=3, T1 (1 h) | [1]; 15 mg ascorbic acid, 23.7-47.6 mCi, 2.26-4.53 mCi/mL, 1 × EZAG GalliaPharm, 2 × IRE Galli Eo, n=3, T0 | [1]; 15 mg ascorbic acid, 23.7-47.6 mCi, 2.26-4.53 mCi/mL, 1 × EZAG GalliaPharm, 2 × IRE Galli Eo, n=3, T4 (4 h) | [1]; 20 mg ascorbic acid, 514-544 mCi, 48.3-51.9 mCi/mL, GE Solid Target, n=2, T0 | [1]; 20 mg ascorbic acid, 514-544 mCi, 48.3-51.9 mCi/mL, GE Solid Target, n=2, T6 (6 h) | [1]; 50 mg ascorbic acid, 560 mCi, 71.1 mCi/mL, GE Solid Target, n=1, T0 | [1]; 50 mg ascorbic acid, 560 mCi, 71.1 mCi/mL, GE Solid Target, n=1, T6 (6 h) | [2]; bracketing ~1 mCi/mL, 18.75 mg ascorbic acid, 8.9-11.5 mCi, 0.85-1.09 mCi/mL, IRE Galli Eo, n=2, T0 | [2]; bracketing ~1 mCi/mL, 18.75 mg ascorbic acid, 8.9-11.5 mCi, 0.85-1.09 mCi/mL, IRE Galli Eo, n=2, T1 (1 h) | [2]; bracketing ~1 mCi/mL, 25 mg ascorbic acid, 8.8-12.7 mCi, 0.84-1.21 mCi/mL, 2 × IRE Galli Eo, n=2, T0 | [2]; bracketing ~1 mCi/mL, 25 mg ascorbic acid, 8.8-12.7 mCi, 0.84-1.21 mCi/mL, 2 × IRE Galli Eo, n=2, T1 (1 h) | [2]; bracketing ~1 mCi/mL, 31.25 mg ascorbic acid, 15.2-26.9 mCi, 1.44-2.54 mCi/mL, EZAG GalliaPharm, n=2, T0 | [2]; bracketing ~1 mCi/mL, 31.25 mg ascorbic acid, 15.2-26.9 mCi, 1.44-2.54 mCi/mL, EZAG GalliaPharm, n=2, T1 (1 h) | [2]; bracketing ~7 mCi/mL, 18.75 mg ascorbic acid, 51.0-58.0 mCi, 5.55-6.5 mCi/mL, IRE Galli Eo, n=2, T0 | [2]; bracketing ~7 mCi/mL, 18.75 mg ascorbic acid, 51.0-58.0 mCi, 5.55-6.5 mCi/mL, IRE Galli Eo, n=2, T4 (4 h) | [2]; bracketing ~7 mCi/mL, 25 mg ascorbic acid, 51.6-74.4 mCi, 4.56-6.92 mCi/mL, 3 × GE Liquid Target, 3 × IRE Galli Eo, 3 × EZAG GalliaPharm, n=9, T0 | [2]; bracketing ~7 mCi/mL, 25 mg ascorbic acid, 51.6-74.4 mCi, 4.56-6.92 mCi/mL, 3 × GE Liquid Target, 3 × IRE Galli Eo, 3 × EZAG GalliaPharm, n=9, T4 (4 h) | [2]; bracketing ~7 mCi/mL, 31.25 mg ascorbic acid, 61.5-62.0 mCi, 5.85-5.88 mCi/mL, EZAG GalliaPharm, n=2, T0 | [2]; bracketing ~7 mCi/mL, 31.25 mg ascorbic acid, 61.5-62.0 mCi, 5.85-5.88 mCi/mL, EZAG GalliaPharm, n=2, T4 (4 h) | [2]; bracketing ~50 mCi/mL, 20 mg ascorbic acid, 514-544 mCi, 48.3-51.9 mCi/mL, GE Solid Target, n=2, T0 | [2]; bracketing ~50 mCi/mL, 20 mg ascorbic acid, 514-544 mCi, 48.3-51.9 mCi/mL, GE Solid Target, n=2, T6 (6 h) | [2]; bracketing ~50 mCi/mL, 25 mg ascorbic acid, 537-551 mCi, 50.2-51.6 mCi/mL, GE Solid Target, n=3, T0 | [2]; bracketing ~50 mCi/mL, 25 mg ascorbic acid, 537-551 mCi, 50.2-51.6 mCi/mL, GE Solid Target, n=3, T6 (6 h) | [2]; bracketing ~50 mCi/mL, 31.25 mg ascorbic acid, 500-544 mCi, 48.1-51.7 mCi/mL, GE Solid Target, n=2, T0 | [2]; bracketing ~50 mCi/mL, 31.25 mg ascorbic acid, 500-544 mCi, 48.1-51.7 mCi/mL, GE Solid Target, n=2, T6 (6 h)
